In patent publication US11236059B2, “Targeted cytotoxic ratjadone derivatives and conjugates thereof” (HELMHOLTZ-ZENTRUM FUER INFEKTIONSFORSCHUNG GMBH, priority 2017, dated 2022):
pIC50: −log10 of the molar value. Like-named read-outs stand apart in the source and are kept apart here.

Assays:
[1] = system: KB 3.1 (DSMZ ACC 158) cells; test: cells; conditions: Homo sapiens, KB 3-1, 120 h
[2] = system: MCF-7 (DSMZ ACC 115) cells; test: cells; type: cell-based; conditions: Homo sapiens, MCF7, 120 h
Experimental: (§1) 60 μL of serial dilutions of the test compound were given to 120 μL of suspended cells (50.000/mL) in wells of 96-well plates. After 5 days of incubation growth inhibition (IC50) was determined using an MTT assay.^[64]

[3] = system: SKOV-3 (DSMZ ATCC HTB 77) cells; test: cells; type: cell-based; conditions: Homo sapiens, SK-OV-3, 120 h
Experimental: as §1

[4] = system: A549 (DSMZ ACC 107) cells; test: cells; type: cell-based; conditions: Homo sapiens, A549, 120 h
Experimental: as §1

CRM1 = target: T1, CRM1 (Homo sapiens, UniProt O14980); test: Monitoring export inhibitory activity (translocation biosensor, HeLaRevBio cells); type: cell-based; conditions: for IC50: HeLa cells stably expressing translocation biosensor, 1h of incubation, read-out: IC50 [nM] CRM1 (nuclear export inhibition)
T1 construct: HeLa cells stably expressing a fluorescent translocation biosensor (HeLaRevBio); endogenous in cells; host or cells: HeLa (HeLaRevBio in A7; HeLa in A8)
Experimental: Export inhibitory ability of compounds was evaluated with the translocation biosensor system. This cellular assay depends on a recombinantly expressed fusion protein consisting of a nuclear localization signal (SV40-NLS), glutathione S-transferase (GST), green fluorescent protein (GFP) and a nuclear export signal (HIV1-RevNES). Due to the two transport signals (NLS/NES), the biosensor is permanently shuttling between nucleus and cytoplasm but resides prominently in the cytoplasm due to a comparatively stronger NES. Export inhibiting compound induce a nuclear accumulation of the GFP-signal^[65,66] Cell lines were maintained as recommended by the American Type Culture Collection in DMEM containing 5% glutamine (Thermo Fisher Scientific, Waltham, USA) supplemented with 10% FBS (Thermo Fisher Scientific, Waltham, USA). For quantifying the nuclear export inhibitory effect, HeLa cells stably expressing a fluorescent translocation biosensor (HeLaRevBio)^[67] were seeded into black 96 well μclear plates (Greiner, Germany). They next day compounds were added covering an appropriate concentration range. After 1h of incubation, cells were fixed in 4% PFA for 10 min and permeabilized with 0.1% Triton X 100 in PBS for 5 min. After washing with PBS nuclei were labeled with Hoechst H33342 (30 min 10 μg/ml). The intracellular distribution of the biosensor-dependent GFP signal was quantitatively evaluated with the high content imaging system ImageXpress MicroXLS (Molecular Devices, Sunnyvale, USA). By using the translocation enhanced application module (Molecular Devices, Sunnyvale, USA) the GFP-intensity was quantified in the cytoplasm and nuclear region. As final readout the difference of Mean Inner and Mean Outer Intensity was calculated. IC50s of nuclear export inhibition were calculated using Sigma Plot with four parameter logistics curve regression (Systat Software GmbH, Erkrath, Germany). […] The following day compounds were added at 125 nM final concentration.

[5] = read-out: IC50 [nM] KB-3.1, growth inhibition, 5 days of incubation, MTT assay
[6] = read-out: IC50 [nM] MCF-7, growth inhibition, 5 days of incubation, MTT assay
[7] = read-out: IC50 [nM] SK-OV-3, growth inhibition, 5 days of incubation, MTT assay
[8] = read-out: IC50 [nM] A-549, growth inhibition, 5 days of incubation, MTT assay

T1 sequence (O14980 whole entry): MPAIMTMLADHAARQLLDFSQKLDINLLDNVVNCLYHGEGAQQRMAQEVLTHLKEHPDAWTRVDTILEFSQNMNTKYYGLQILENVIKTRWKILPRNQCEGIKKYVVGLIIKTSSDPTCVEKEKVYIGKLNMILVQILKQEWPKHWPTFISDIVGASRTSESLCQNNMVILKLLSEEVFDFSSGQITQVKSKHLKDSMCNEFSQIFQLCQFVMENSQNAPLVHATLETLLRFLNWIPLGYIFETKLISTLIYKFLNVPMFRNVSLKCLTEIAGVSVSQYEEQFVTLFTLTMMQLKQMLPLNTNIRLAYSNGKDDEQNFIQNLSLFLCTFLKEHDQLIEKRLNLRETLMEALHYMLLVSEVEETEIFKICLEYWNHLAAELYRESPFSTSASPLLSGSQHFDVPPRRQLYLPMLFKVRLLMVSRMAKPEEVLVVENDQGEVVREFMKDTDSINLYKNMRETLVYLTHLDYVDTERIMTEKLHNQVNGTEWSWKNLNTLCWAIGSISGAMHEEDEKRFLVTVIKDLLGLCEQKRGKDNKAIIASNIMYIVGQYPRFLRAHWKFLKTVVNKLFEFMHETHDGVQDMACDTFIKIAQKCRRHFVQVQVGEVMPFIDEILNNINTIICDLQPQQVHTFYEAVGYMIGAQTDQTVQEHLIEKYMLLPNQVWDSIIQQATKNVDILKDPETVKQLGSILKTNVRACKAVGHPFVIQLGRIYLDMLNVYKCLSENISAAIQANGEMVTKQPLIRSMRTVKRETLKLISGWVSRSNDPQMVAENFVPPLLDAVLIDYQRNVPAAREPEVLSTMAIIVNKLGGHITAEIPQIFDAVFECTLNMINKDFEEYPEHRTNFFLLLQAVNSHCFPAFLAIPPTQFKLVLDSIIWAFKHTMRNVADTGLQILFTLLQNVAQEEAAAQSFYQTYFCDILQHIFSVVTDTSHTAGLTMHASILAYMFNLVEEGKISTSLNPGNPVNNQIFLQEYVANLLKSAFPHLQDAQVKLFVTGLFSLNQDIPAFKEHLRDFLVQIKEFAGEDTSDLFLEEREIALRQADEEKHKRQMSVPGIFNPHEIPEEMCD

Structure (SMILES) | IC50 [1, 5] [nM] | IC50 [2, 6] [nM] | IC50 [3, 7] [nM] | IC50 [4, 8] [nM] | IC50 (CRM1) [nM] | IC50 ([1]; read-out: IC50 [nM] KB-3.1) [nM] | IC50 ([2]; growth inhibition, 5 days of incubation, MTT assay, read-out: IC50 [nM] MCF-7) [nM] | IC50 ([3]; growth inhibition, 5 days of incubation, MTT assay, read-out: IC50 [nM] SK-OV-3) [nM] | IC50 ([4]; growth inhibition, 5 days of incubation, MTT assay, read-out: IC50 [nM] A-549) [nM] | pIC50 (CRM1)
C#CCCOC(=O)N[C@H](/C=C/C=C(\C)C[C@@H](C)/C=C(C)\C=C\[C@H]1CC=CC(=O)O1)[C@@H]1C[C@@H](O)[C@H](C)[C@H](/C=C/C)O1 [Compound 24, But-3-yn-1-yl ((1R,2E,4E,7R,8Z,10E)-1-((2S,4R,5S,6S)-4-hydroxy-5-methyl-6-((E)-prop-1-en-1-yl)tetrahydro-2H-pyran-2-yl)-5,7,9-trimethyl-11-((R)-6-oxo-3,6-dihydro-2H-pyran-2-yl)undeca-2,4,8,10-tetraen-1-yl)carbamate] | 0.47 | 0.27 | 0.45 | 1.25 | 46.1 | – | – | – | – | –
C#CCCOC(=O)N[C@H](C(=O)N[C@@H](CCCNC(N)=O)C(=O)Nc1ccc(COC(=O)N[C@H](/C=C/C=C(\C)C[C@@H](C)/C=C(C)\C=C\[C@H]2CC=CC(=O)O2)[C@@H]2C[C@@H](O)[C@H](C)[C@H](/C=C/C)O2)cc1)C(C)C [But-3-yn-1-yl ((S)-1-(((S)-1-((4-(((((1R,2E,4E,7R,8Z,10E)-1-((2S,4R,5S,6S)-4-hydroxy-5-methyl-6-((E)-prop-1-en-1-yl)tetrahydro-2H-pyran-2-yl)-5,7,9-trimethyl-11-((R)-6-oxo-3,6-dihydro-2H-pyran-2-yl)undeca-2,4,8,10-tetraen-1-yl)carbamoyl)-oxy)methyl)phenyl)amino)-1-oxo-5-ureidopentan-2-yl)amino)-3-methyl-1-oxobutan-2-yl)carbamate] | – | – | – | – | – | 9.2 | 12.5 | 13.6 | 25.1 | –
C#CCCC(=O)NCCSSCCC(=O)N[C@H](/C=C/C=C(\C)C[C@@H](C)/C=C(C)\C=C\[C@H]1CC=CC(=O)O1)[C@@H]1C[C@@H](O)[C@H](C)[C@H](/C=C/C)O1 [N-(2-((3-(((1R,2E,4E,7R,8Z,10E)-1-((2S,4R,5S,6S)-4-hydroxy-5-methyl-6-((E)-prop-1-en-1-yl)tetrahydro-2H-pyran-2-yl)-5,7,9-trimethyl-11-((R)-6-oxo-3,6-dihydro-2H-pyran-2-yl)undeca-2,4,8,10-tetraen-1-yl)amino)-3-oxopropyl)disulfaneyl)-ethyl)pent-4-ynamide] | 1.86 | 0.17 | 1.09 | 0.86 | – | – | – | – | – | –
C#CCNC1C[C@@H]([C@H](O)/C=C/C=C(\C)C[C@@H](C)/C=C(C)\C=C\[C@H]2CC=CC(=O)O2)O[C@@H](/C=C/C)[C@H]1C (stereo partly drawn) [N-Propargyl-19-amino-Ratjadone 42, (6R)-6-((1E,3Z,5R,7E,9E,11R)-11-hydroxy-3,5,7-trimethyl-11-((2S,5S,6S)-5-methyl-6-((E)-prop-1-en-1-yl)-4-(prop-2-yn-1-ylamino)tetrahydro-2H-pyran-2-yl)undeca-1,3,7,9-tetraen-1-yl)-5,6-dihydro-2H-pyran-2-one] | 1.23 | 1.31 | 2.63 | 1.12 | 18.3 | – | – | – | – | –
C#CCCOC(=O)N[C@@H](/C=C/C=C(\C)C[C@@H](C)/C=C(C)\C=C\[C@H]1CC=CC(=O)O1)[C@@H]1C[C@@H](O)[C@H](C)[C@H](/C=C/C)O1 [Compound 25, But-3-yn-1-yl ((1S,2E,4E,7R,8Z,10E)-1-((2S,4R,5S,6S)-4-hydroxy-5-methyl-6-((E)-prop-1-en-1-yl)tetrahydro-2H-pyran-2-yl)-5,7,9-trimethyl-11-((R)-6-oxo-3,6-dihydro-2H-pyran-2-yl)undeca-2,4,8,10-tetraen-1-yl)carbamate] | 1.23 | 0.62 | 1.2 | 2.45 | 12 | – | – | – | – | –
C/C=C/[C@@H]1O[C@H]([C@@H](/C=C/C=C(\C)C[C@@H](C)/C=C(C)\C=C\[C@H]2CC=CC(=O)O2)NC(=O)OC)C[C@@H](O)[C@@H]1C [16S-Amino-Ratjadone methyl carbamate 20, methyl ((1R,2E,4E,7R,8Z,10E)-1-((2S,4R,5S,6S)-4-hydroxy-5-methyl-6-((E)-prop-1-en-1-yl)tetrahydro-2H-pyran-2-yl)-5,7,9-trimethyl-11-((R)-6-oxo-3,6-dihydro-2H-pyran-2-yl)undeca-2,4,8,10-tetraen-1-yl)carbamate] | 8.18 | – | – | – | – | – | – | – | – | 7.63
C/C=C/[C@@H]1O[C@H](C(=O)/C=C/C=C(\C)C[C@@H](C)/C=C(C)\C=C\[C@H]2CC=CC(=O)O2)CC(=O)[C@@H]1C [16,19-Dioxo-Ratjadone 10, (R)-6-((R,1E,3Z,7E,9E)-3,5,7-trimethyl-11-((2S,5R,6S)-5-methyl-4-oxo-6-((E)-prop-1-en-1-yl)tetrahydro-2H-pyran-2-yl)-11-oxoundeca-1,3,7,9-tetraen-1-yl)-5,6-dihydro-2H-pyran-2-one] | 3.98 | 2.87 | 1.59 | 9.72 | 17.5 | – | – | – | – | –
C/C=C/[C@@H]1O[C@H]([C@@H](/C=C/C=C(\C)C[C@@H](C)/C=C(C)\C=C\[C@H]2CC=CC(=O)O2)NC(=O)CCSSc2ccccn2)C[C@@H](O)[C@@H]1C [2-PySS(CH2)2(CO)NH-Ratja 35, N-((1R,2E,4E,7R,8Z,10E)-1-((2S,4R,5S,6S)-4-Hydroxy-5-methyl-6-((E)-prop-1-en-1-yl)tetrahydro-2H-pyran-2-yl)-5,7,9-trimethyl-11-((R)-6-oxo-3,6-dihydro-2H-pyran-2-yl)undeca-2,4,8,10-tetraen-1-yl)-3-(pyridin-2-yldisulfaneyl)propanamide] | 8.8 | 26 | 24.6 | 30.6 | 44.1 | – | – | – | – | –
C/C=C/[C@@H]1O[C@H]([C@@H](/C=C/C=C(\C)C[C@@H](C)/C=C(C)\C=C\[C@H]2CC=CC(=O)O2)NC(=O)OCc2ccc(NC(=O)[C@H](CCCNC(N)=O)NC(=O)[C@@H](NC(=O)OC[C@@H]3[C@@H]4CCC#CCC[C@@H]43)C(C)C)cc2)C[C@@H](O)[C@@H]1C [BCN—O(CO)HN-Val-Cit-PABO(CO)NH-Ratja 31, ((1R,8S,9s)-bicyclo[6.1.0]non-4-yn-9-yl)methyl ((S)-1-(((S)-1-((4-(((((1R,2E,4E,7R,8Z,10E)-1-((2S,4R,5S,6S)-4-hydroxy-5-methyl-6-((E)-prop-1-en-1-yl)tetrahydro-2H-pyran-2-yl)-5,7,9-trimethyl-11-((R)-6-oxo-3,6-dihydro-2H-pyran-2-yl)undeca-2,4,8,10-tetraen-1-yl)carbamoyl)oxy)methyl)phenyl)amino)-1-oxo-5-ureidopentan-2-yl)amino)-3-methyl-1-oxobutan-2-yl)carbamate] | 25.1 | 20.2 | 34.7 | 39.5 | – | – | – | – | – | 6.46
C#CCCC(=O)N[C@H](/C=C/C=C(\C)C[C@@H](C)/C=C(C)\C=C\[C@H]1CC=CC(=O)O1)[C@@H]1C[C@@H](O)[C@H](C)[C@H](/C=C/C)O1 [Compound 22, N-((1R,2E,4E,7R,8Z,10E)-1-((2S,4R,5S,6S)-4-hydroxy-5-methyl-6-((E)-prop-1-en-1-yl)tetrahydro-2H-pyran-2-yl)-5,7,9-trimethyl-11-((R)-6-oxo-3,6-dihydro-2H-pyran-2-yl)undeca-2,4,8,10-tetraen-1-yl)pent-4-ynamide] | 1.05 | 0.4 | 0.44 | 0.58 | 23.2 | – | – | – | – | –
C/C=C/[C@@H]1O[C@H]([C@H](/C=C/C=C(\C)C[C@@H](C)/C=C(C)\C=C\[C@H]2CC=CC(=O)O2)NC(=O)OC)C[C@@H](O)[C@@H]1C [16R-Amino-Ratjadone methyl carbamate 19, methyl ((1S,2E,4E,7R,8Z,10E)-1-((2S,4R,5S,6S)-4-hydroxy-5-methyl-6-((E)-prop-1-en-1-yl)tetrahydro-2H-pyran-2-yl)-5,7,9-trimethyl-11-((R)-6-oxo-3,6-dihydro-2H-pyran-2-yl)undeca-2,4,8,10-tetraen-1-yl)carbamate] | 2.53 | – | – | – | – | – | – | – | – | 7.90
